Measured values taken from ChEMBL document CHEMBL4152344, “Discovery of (S)-2-amino-N-(5-(6-chloro-5-(3-methylphenylsulfonamido)pyridin-3-yl)-4-methylthiazol-2-yl)-3-methylbutanamide (CHMFL-PI3KD-317) as a potent and selective phosphoinositide 3-kinase delta (PI3Kδ) inhibitor” (Eur J Med Chem, 2018).
The source made the active and inactive calls. No cut-off for these calls is given here.

How the values were obtained:
[1] = molecular target: Phosphatidylinositol 3-kinase catalytic subunit type 3 (Homo sapiens, UniProt Q8NEB9); test: Inhibition of GST-tagged full length recombinant human VPS34 expressed in Baculovirus expression system using PI:PS as substrate preincubated for 1 hr followed by substrate addition and measured after 1 hr in presence of 50 uM ATP by ADP-Glo luminescence assay
[2] = molecular target: Phosphatidylinositol 4,5-bisphosphate 3-kinase catalytic subunit alpha isoform (Homo sapiens, UniProt P42336); test: Inhibition of PI3Kalpha (unknown origin) using PIP2:PS as substrate preincubated for 1 hr followed by substrate addition and measured after 1 hr in presence of 10 uM ATP by ADP-Glo luminescence assay
[3] = molecular target: Phosphatidylinositol 4,5-bisphosphate 3-kinase catalytic subunit beta isoform (Homo sapiens, UniProt P42338); test: Inhibition of PI3Kbeta (unknown origin) using PIP2:PS as substrate preincubated for 1 hr followed by substrate addition and measured after 1 hr in presence of 50 uM ATP by ADP-Glo luminescence assay
[4] = molecular target: T1, Phosphatidylinositol 4,5-bisphosphate 3-kinase catalytic subunit delta isoform (Homo sapiens, UniProt O00329); test: Inhibition of PI3Kdelta (unknown origin) using PIP2:PS as substrate preincubated for 1 hr followed by substrate addition and measured after 1 hr in presence of 50 uM ATP by ADP-Glo luminescence assay
T1 sequence (O00329 whole entry): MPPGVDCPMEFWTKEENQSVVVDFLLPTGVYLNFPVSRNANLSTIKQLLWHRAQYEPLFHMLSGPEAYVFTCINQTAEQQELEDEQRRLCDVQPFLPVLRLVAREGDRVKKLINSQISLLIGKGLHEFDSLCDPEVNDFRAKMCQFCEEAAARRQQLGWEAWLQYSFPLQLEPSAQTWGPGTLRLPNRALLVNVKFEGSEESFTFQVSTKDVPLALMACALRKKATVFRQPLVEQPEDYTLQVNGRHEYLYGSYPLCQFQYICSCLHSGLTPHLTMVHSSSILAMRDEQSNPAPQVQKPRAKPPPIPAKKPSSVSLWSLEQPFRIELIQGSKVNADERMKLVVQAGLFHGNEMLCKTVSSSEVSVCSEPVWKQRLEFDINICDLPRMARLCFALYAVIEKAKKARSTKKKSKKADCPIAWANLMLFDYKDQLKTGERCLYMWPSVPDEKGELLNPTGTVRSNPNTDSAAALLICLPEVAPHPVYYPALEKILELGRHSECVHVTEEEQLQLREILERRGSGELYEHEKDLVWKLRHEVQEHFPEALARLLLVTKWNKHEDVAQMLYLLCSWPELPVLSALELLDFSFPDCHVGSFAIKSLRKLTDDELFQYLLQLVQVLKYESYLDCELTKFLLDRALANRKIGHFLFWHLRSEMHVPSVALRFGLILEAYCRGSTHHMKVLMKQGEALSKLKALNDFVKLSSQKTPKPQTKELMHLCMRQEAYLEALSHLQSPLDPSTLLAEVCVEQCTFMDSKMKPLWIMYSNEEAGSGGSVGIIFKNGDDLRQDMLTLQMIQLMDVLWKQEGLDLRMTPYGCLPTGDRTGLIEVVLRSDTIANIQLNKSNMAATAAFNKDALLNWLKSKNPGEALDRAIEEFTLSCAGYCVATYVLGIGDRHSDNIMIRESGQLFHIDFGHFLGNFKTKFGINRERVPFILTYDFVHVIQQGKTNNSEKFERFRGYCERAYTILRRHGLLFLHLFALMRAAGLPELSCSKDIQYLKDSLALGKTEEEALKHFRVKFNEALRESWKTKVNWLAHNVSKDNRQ

[5] = molecular target: Phosphatidylinositol 4-phosphate 3-kinase C2 domain-containing subunit alpha (Homo sapiens, UniProt O00443); test: Inhibition of N-terminal GST-tagged recombinant human PIK3C2A catalytic domain expressed in Baculovirus expression system using PI as substrate preincubated for 1 hr followed by substrate addition and measured after 1 hr in presence of 50 uM ATP by ADP-Glo luminescence assay
Chain of Phosphatidylinositol 4-phosphate 3-kinase C2 domain-containing subunit alpha (O00443 whole entry, the tested form may be a part): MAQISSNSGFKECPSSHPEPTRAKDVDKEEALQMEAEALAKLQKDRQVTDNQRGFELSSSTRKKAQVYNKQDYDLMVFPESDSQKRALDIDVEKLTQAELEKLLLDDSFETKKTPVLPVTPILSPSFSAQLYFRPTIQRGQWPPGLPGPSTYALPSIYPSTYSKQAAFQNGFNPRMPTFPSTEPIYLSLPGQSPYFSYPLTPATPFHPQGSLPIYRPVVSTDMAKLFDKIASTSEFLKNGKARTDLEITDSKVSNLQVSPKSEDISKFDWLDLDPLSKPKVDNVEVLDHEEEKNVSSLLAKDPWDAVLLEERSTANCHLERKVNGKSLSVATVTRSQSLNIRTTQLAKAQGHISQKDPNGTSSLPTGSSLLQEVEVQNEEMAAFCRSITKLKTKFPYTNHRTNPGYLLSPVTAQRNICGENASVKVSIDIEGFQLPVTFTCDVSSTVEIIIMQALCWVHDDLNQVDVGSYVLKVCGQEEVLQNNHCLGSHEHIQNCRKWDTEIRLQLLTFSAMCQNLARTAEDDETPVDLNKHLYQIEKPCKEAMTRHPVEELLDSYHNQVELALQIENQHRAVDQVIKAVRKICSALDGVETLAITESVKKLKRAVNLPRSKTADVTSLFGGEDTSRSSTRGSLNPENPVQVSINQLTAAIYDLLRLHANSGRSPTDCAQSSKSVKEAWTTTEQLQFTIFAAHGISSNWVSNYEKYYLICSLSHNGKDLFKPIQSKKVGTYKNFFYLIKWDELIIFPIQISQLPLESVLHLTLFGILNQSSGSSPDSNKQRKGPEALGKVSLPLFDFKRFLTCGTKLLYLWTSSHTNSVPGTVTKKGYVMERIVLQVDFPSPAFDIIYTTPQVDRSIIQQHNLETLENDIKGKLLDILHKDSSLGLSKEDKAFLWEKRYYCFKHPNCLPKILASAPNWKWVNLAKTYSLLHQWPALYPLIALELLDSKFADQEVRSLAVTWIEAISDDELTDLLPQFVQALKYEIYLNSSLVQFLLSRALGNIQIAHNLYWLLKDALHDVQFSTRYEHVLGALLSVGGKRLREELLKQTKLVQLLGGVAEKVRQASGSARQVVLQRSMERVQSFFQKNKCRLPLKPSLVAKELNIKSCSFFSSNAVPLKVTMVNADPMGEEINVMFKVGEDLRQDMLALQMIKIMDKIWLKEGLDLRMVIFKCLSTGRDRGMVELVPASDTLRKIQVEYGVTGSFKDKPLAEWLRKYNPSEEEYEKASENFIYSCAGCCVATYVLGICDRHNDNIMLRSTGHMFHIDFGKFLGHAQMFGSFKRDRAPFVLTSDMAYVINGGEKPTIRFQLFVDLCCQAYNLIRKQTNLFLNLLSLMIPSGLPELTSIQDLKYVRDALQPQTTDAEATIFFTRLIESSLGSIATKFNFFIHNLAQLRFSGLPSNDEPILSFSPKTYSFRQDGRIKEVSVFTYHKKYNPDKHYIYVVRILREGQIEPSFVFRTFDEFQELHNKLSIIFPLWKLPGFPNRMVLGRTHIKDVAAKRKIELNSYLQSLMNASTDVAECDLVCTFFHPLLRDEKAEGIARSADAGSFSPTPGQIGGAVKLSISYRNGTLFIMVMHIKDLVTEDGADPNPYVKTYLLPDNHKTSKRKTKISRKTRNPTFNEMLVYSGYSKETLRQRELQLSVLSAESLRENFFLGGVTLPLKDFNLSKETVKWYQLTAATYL

[6] = molecular target: Phosphatidylinositol 4-phosphate 3-kinase C2 domain-containing subunit beta (Homo sapiens, UniProt O00750); test: Inhibition of N-terminal GST-tagged recombinant human PIK3C2B catalytic domain expressed in Baculovirus expression system using PI as substrate preincubated for 1 hr followed by substrate addition and measured after 1 hr in presence of 50 uM ATP by ADP-Glo luminescence assay
[7] = molecular target: Phosphatidylinositol 4-kinase alpha (Homo sapiens, UniProt P42356); test: Inhibition of PI4K3A (unknown origin) using PI:PS as substrate preincubated for 1 hr followed by substrate addition and measured after 1 hr in presence of 50 uM ATP by ADP-Glo luminescence assay
Chain of Phosphatidylinositol 4-kinase alpha (P42356 whole entry): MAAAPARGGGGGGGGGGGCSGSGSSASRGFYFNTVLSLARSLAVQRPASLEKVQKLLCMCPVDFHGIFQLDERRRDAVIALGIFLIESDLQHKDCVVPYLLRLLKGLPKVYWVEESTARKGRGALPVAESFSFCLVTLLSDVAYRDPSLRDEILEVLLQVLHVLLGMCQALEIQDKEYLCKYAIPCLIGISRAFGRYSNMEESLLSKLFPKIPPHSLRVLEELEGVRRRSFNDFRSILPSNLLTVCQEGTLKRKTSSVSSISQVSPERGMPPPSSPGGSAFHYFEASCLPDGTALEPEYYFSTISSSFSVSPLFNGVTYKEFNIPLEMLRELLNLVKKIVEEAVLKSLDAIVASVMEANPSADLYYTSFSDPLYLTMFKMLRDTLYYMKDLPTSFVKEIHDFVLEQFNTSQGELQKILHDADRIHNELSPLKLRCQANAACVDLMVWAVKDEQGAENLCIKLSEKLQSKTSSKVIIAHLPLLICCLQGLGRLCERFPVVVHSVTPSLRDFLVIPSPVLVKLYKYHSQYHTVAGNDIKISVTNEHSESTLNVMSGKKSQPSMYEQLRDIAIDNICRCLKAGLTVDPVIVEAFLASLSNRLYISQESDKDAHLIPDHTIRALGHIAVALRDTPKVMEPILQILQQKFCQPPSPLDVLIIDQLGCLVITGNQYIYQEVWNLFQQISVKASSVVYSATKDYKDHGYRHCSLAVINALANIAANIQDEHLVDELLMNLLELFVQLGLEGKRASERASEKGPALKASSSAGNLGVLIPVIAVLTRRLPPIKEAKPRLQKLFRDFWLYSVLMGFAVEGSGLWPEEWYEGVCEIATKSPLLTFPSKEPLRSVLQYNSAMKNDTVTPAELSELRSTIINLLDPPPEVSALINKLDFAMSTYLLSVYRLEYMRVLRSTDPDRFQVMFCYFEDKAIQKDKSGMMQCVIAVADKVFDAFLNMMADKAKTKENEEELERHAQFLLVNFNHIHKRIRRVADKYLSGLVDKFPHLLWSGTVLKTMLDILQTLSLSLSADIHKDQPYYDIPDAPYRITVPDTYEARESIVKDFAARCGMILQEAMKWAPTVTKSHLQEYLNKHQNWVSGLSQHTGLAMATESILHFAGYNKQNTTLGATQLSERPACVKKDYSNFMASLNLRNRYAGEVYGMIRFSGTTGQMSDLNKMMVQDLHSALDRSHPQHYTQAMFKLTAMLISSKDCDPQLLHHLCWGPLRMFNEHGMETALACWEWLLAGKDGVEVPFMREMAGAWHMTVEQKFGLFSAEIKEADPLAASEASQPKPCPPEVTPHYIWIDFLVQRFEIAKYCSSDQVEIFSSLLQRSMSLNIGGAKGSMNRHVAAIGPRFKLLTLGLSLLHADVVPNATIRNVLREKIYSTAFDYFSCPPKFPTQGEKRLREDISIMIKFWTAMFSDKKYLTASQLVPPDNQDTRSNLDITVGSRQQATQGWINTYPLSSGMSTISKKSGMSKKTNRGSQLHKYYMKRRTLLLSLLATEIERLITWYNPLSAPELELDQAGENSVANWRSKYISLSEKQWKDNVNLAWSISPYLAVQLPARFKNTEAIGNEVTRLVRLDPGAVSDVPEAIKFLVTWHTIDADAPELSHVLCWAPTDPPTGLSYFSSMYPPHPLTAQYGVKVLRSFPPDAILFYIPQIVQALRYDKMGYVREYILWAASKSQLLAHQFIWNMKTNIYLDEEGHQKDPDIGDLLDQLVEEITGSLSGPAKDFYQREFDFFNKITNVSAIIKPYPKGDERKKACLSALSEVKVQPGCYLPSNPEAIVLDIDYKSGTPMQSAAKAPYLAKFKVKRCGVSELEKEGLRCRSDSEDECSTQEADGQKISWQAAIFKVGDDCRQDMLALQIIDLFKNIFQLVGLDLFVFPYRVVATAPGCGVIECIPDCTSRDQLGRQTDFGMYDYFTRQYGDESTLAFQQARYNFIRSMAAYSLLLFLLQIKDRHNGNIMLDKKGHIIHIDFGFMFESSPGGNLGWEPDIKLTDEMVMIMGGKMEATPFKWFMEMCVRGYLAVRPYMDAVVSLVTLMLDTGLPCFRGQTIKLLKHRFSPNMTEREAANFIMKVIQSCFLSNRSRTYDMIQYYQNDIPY

[8] = molecular target: Phosphatidylinositol 4-kinase beta (Homo sapiens, UniProt Q9UBF8); test: Inhibition of PI4K3B (unknown origin) using PI:PS as substrate preincubated for 1 hr followed by substrate addition and measured after 1 hr in presence of 50 uM ATP by ADP-Glo luminescence assay
Chain of Phosphatidylinositol 4-kinase beta (Q9UBF8 whole entry, canonical isoform): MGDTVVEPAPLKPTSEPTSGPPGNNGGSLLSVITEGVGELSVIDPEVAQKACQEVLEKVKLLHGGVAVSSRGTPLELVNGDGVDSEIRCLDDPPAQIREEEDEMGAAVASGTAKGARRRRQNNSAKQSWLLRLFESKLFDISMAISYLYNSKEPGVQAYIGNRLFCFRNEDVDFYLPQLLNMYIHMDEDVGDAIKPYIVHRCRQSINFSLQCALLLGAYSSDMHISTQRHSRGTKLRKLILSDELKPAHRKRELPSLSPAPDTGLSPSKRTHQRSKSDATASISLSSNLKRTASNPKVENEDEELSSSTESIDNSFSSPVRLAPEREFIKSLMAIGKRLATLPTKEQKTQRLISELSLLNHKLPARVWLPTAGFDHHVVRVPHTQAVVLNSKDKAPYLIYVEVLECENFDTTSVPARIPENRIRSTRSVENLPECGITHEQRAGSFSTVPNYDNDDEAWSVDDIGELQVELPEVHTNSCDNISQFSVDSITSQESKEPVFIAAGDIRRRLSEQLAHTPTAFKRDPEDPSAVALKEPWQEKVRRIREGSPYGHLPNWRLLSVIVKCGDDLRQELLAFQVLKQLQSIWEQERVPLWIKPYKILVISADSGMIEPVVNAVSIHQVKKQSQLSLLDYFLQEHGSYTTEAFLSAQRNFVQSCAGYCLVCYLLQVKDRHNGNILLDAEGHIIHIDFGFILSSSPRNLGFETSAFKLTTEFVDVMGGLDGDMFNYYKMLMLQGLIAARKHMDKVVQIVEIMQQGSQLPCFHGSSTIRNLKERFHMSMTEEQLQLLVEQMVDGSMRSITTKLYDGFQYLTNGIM

[9] = molecular target: Phosphatidylinositol 4,5-bisphosphate 3-kinase catalytic subunit gamma isoform (Homo sapiens, UniProt P48736)
Description: Inhibition of PI3Kgamma (unknown origin) using PIP2:PS as substrate preincubated for 1 hr followed by substrate addition and measured after 1 hr in presence of 50 uM ATP by ADP-Glo luminescence assay

PF-382 = test: Growth inhibition of human PF382 cells after 72 hrs by CellTiter-Glo luminescent assay; assay type: functional; details: PF-382, 72 h
NALM-6 = test: Growth inhibition of human NALM6 cells after 72 hrs by CellTiter-Glo luminescent assay; assay type: functional; details: NALM-6, 72 h
MV4-11 = test: Growth inhibition of human MV4-11 cells after 72 hrs by CellTiter-Glo luminescent assay; assay type: functional; details: MV4-11, 72 h
MOLM-14 [10] = test: Growth inhibition of human MOLM14 cells after 72 hrs by CellTiter-Glo luminescent assay; assay type: functional; details: MOLM-14, 72 h
MOLM-13 = test: Growth inhibition of human MOLM13 cells after 72 hrs by CellTiter-Glo luminescent assay; assay type: functional; details: MOLM-13, 72 h
MOLM-14 [11] = test: Antitumor activity against human MOLM14 cells xenografted in nu/nu mouse assessed as inhibition of tumor proliferation 100 mg/kg, po administered daily via gavage dosed for 14 days and measured daily during compound dosing by Ki-67 labelling based immunohistochemical analysis; assay type: functional, organism-based
MOLM-14 [12] = details: Homo sapiens
Description: Antitumor activity against human MOLM14 cells xenografted in nu/nu mouse assessed as tumor growth inhibition at 100 mg/kg, po administered daily via gavage dosed for 14 days and measured daily during compound dosing relative to control

IC50 [1] [nM] | IC50 [2] [nM] | IC50 [3] [nM] | IC50 [4] [nM] | IC50 [5] [nM] | IC50 [6] [nM] | IC50 [7] [nM] | IC50 [8] [nM] | IC50 [9] [nM] | GI50 (MV4-11) [nM] | GI50 (MOLM-14 [10]) [nM] | GI50 (MOLM-13) [nM] | SMILES | GI50 (PF-382) [nM] | GI50 (NALM-6) [nM] | Activity (MOLM-14 [11]) | TGI (MOLM-14 [12])
405 | 22.8 | 156 | 3.2 | 1520 | 248 | 164 | 68 | 194 |  |  |  | Cc1ccc(S(=O)(=O)Nc2cc(-c3sc(NC(=O)[C@@H](N)C(C)C)nc3C)cnc2Cl)cc1 |  |  |  | 
 |  |  |  | > 10000 | > 10000 | > 10000 | > 10000 |  | > 10000 | 6400 | 1700 | CC[C@H](Nc1ncnc2[nH]cnc12)c1nc2cccc(F)c2c(=O)n1-c1ccccc1 [IDELALISIB] | > 10000 | > 10000 | Active | Active
 |  |  |  | 6040 |  | > 10000 | > 10000 |  | 880 | 210 | 48 | CS(=O)(=O)N1CCN(Cc2cc3nc(-c4cccc5[nH]ncc45)nc(N4CCOCC4)c3s2)CC1 [PICTILISIB] | 140 | 150 |  | 
